Experimental data from ChEMBL document CHEMBL1158908, “Diyne Enol Ethers of Glycerol from a New Zealand Sponge, Petrosia hebes” (1990).

System: P388
Test: Cytotoxicity against mouse P388 cells
Type: functional
Settings: read-out: ID50 (the source's name)

Row | SMILES | IC50 [µg/mL]
1 | CC(C)CCCCCC(O)C#CC#C/C=C\OCC(O)CO (configuration not stated) | > 6
2 | CCCCCCCCCC(O)C#CC#C/C=C\OCC(O)CO (configuration not stated) | > 11
